Key:
B2 bradykinin receptor = molecular target: T1, B2 bradykinin receptor (Homo sapiens, UniProt P30411); assay type: cell membranes, Membrane; details: chem-1; further: in other assays of this panel Not Active means under 50% inhibition at 10 µM
T1 sequence (P30411 whole entry): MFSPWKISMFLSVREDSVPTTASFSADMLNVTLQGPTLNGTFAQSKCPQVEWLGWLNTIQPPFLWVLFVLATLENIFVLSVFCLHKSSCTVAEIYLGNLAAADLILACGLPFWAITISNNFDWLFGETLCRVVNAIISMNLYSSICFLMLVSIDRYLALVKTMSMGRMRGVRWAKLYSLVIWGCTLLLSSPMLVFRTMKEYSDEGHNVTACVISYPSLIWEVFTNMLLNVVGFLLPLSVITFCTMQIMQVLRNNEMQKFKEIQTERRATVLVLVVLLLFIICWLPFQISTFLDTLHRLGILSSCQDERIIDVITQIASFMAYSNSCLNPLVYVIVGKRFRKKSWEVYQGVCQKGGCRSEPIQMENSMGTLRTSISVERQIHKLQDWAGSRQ

Calcitonin receptor = molecular target: T2, Calcitonin receptor (Homo sapiens, UniProt P30988); assay type: cell membranes, Membrane; details: t47d; further: in other assays of this panel Not Active means under 50% inhibition at 10 µM
T2 sequence (P30988 whole entry): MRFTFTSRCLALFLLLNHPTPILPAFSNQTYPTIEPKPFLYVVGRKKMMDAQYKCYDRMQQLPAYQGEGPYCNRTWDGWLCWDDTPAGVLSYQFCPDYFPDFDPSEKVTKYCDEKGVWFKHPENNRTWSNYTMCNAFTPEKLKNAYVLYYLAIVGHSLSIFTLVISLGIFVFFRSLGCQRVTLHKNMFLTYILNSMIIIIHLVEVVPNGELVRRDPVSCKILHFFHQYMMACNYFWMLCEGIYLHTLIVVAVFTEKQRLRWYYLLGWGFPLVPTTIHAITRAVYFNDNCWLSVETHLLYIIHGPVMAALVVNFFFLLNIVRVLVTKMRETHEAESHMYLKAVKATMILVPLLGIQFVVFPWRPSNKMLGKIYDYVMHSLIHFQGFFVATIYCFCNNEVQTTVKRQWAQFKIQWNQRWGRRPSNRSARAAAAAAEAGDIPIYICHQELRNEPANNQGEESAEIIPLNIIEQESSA

[1] = molecular target: T3, C-X-C chemokine receptor type 2 (Homo sapiens, UniProt P25025); assay type: cell membranes, Membrane; details: cho-k1; further: in other assays of this panel Not Active means under 50% inhibition at 10 µM
T3 sequence (P25025 whole entry): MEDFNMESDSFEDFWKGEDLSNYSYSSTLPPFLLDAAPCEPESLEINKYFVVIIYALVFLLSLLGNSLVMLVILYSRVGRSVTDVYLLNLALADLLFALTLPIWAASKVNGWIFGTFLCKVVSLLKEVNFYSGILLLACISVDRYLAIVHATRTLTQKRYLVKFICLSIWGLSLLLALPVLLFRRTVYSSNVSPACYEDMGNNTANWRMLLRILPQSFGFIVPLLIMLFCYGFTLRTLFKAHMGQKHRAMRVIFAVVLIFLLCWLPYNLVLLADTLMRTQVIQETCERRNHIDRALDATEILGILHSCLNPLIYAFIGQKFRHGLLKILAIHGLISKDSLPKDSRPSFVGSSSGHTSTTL

Leukotriene C4 synthase = molecular target: T4, Leukotriene C4 synthase (Cavia porcellus, UniProt A6XA80); assay type: tissue-based, Lung;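 further: enzyme inhibition assay of leukotriene C4 synthase, using LTA4 as the substrate; in other assays of this panel Not Active means under 50% inhibition at 10 µM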
T4 sequence (A6XA80 whole entry): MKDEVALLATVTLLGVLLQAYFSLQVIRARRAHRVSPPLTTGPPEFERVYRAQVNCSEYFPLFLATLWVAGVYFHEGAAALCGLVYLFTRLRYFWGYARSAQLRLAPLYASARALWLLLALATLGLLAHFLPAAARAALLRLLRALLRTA

[2] = molecular target: T5, Muscarinic acetylcholine receptor M2 (Homo sapiens, UniProt P08172); assay type: cell membranes, CHO-K1, Membrane; details: cho-k1; further: in other assays of this panel Not Active means under 50% inhibition at 10 µM
T5 sequence (P08172 whole entry): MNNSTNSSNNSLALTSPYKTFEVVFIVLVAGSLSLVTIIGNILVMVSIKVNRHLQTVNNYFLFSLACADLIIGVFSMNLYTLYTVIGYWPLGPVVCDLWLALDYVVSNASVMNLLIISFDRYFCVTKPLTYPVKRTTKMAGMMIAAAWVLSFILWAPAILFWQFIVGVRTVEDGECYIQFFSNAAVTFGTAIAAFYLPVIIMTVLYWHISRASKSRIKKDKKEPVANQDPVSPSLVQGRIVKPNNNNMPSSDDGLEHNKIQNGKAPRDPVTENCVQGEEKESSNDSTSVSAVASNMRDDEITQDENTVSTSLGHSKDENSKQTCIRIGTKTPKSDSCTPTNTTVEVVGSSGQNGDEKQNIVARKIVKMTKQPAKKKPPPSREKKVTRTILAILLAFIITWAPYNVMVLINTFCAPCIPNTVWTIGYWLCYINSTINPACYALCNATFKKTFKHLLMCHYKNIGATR

[3] = DRUGMATRIX: Nicotinic Acetylcholine radioligand binding (ligand: [125I] Epibatidine); assay type: cell membranes, Membrane; details: imr-32; Not Active = under 50% inhibition at 10 µM
[4] = molecular target: 5-hydroxytryptamine receptor 1B (Rattus norvegicus, UniProt P28564); assay type: cell membranes, Wistar, Cerebral cortex, Membrane; further: in other assays of this panel Not Active means under 50% inhibition at 10 µM
Cytochrome P450 2C19 = Cytochrome P450 2C19 (Homo sapiens, UniProt P33261); details: bti-tn-5b1-4; further: in other assays of this panel Not Active means under 50% inhibition at 10 µM
Cytochrome P450 2C19, sequence (P33261 whole entry): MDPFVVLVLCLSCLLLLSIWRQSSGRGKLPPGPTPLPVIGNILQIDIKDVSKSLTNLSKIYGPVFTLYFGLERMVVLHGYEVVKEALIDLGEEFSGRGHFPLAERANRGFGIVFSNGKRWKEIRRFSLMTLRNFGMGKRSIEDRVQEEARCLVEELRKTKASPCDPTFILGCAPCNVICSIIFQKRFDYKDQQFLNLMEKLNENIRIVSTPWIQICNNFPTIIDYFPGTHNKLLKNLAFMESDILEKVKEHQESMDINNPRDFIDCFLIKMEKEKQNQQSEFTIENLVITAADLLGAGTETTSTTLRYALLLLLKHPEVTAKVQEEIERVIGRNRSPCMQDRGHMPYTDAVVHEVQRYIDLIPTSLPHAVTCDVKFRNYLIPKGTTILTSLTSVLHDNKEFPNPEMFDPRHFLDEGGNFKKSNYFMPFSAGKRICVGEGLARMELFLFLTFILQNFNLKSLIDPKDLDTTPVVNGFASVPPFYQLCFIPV

5-hydroxytryptamine receptor 1B, sequence (P28564 whole entry): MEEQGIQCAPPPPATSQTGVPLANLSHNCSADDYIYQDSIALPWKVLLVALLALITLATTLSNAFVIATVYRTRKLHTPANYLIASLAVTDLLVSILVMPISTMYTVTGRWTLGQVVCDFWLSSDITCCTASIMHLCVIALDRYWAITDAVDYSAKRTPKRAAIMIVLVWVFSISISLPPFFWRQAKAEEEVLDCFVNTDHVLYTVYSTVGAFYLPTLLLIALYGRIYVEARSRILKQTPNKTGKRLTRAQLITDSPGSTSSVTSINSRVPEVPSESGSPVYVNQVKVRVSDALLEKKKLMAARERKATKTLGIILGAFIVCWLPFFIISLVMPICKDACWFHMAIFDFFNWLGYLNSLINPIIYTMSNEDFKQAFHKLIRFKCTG

CC(=O)O[C@]1(C(C)=O)CC[C@H]2[C@@H]3C=C(Cl)C4=CC(=O)[C@@H]5C[C@@H]5[C@]4(C)[C@H]3CC[C@@]21C [CYPROTERONE ACETATE]
Not Active: IC50 (B2 bradykinin receptor) | IC50 (Calcitonin receptor) | IC50 [1] | IC50 (Leukotriene C4 synthase) | IC50 [2] | IC50 [3] | Ki [3] | IC50 [4] | IC50 (Cytochrome P450 2C19) | Ki (Cytochrome P450 2C19)

CN(Cc1cnc2nc(N)nc(N)c2n1)c1ccc(C(=O)N[C@@H](CCC(=O)O)C(=O)O)cc1 [METHOTREXATE]
Not Active: IC50 (B2 bradykinin receptor) | IC50 (Calcitonin receptor) | IC50 [1] | IC50 (Leukotriene C4 synthase) | IC50 [2] | IC50 [3] | Ki [3] | IC50 [4] | IC50 (Cytochrome P450 2C19) | Ki (Cytochrome P450 2C19)

CC(CCc1ccc(O)cc1)NCCc1ccc(O)c(O)c1 (stereo unspecified) [DOBUTAMINE]
Not Active: IC50 (B2 bradykinin receptor) | IC50 (Calcitonin receptor) | IC50 [1] | IC50 (Leukotriene C4 synthase) | IC50 [2] | IC50 [3] | Ki [3] | IC50 [4] | IC50 (Cytochrome P450 2C19) | Ki (Cytochrome P450 2C19)

Nc1nc(Cl)nc2c1ncn2[C@H]1C[C@H](O)[C@@H](CO)O1 [CLADRIBINE]
Not Active: IC50 (B2 bradykinin receptor) | IC50 (Calcitonin receptor) | IC50 [1] | IC50 (Leukotriene C4 synthase) | IC50 [2] | IC50 [3] | Ki [3] | IC50 [4] | IC50 (Cytochrome P450 2C19) | Ki (Cytochrome P450 2C19)

Cc1cccc(Nc2cc(Cl)nc(SCC(=O)O)n2)c1C [PIRINIXIC ACID]
Not Active: IC50 (B2 bradykinin receptor) | IC50 (Calcitonin receptor) | IC50 [1] | IC50 (Leukotriene C4 synthase) | IC50 [2] | IC50 [3] | Ki [3] | IC50 [4] | IC50 (Cytochrome P450 2C19) | Ki (Cytochrome P450 2C19)

INSULIN HUMAN
Not Active: IC50 (B2 bradykinin receptor) | Ki (B2 bradykinin receptor) | IC50 (Calcitonin receptor) | Ki (Calcitonin receptor) | IC50 [1] | Ki [1] | IC50 (Leukotriene C4 synthase) | Ki (Leukotriene C4 synthase) | IC50 [2] | Ki [2] | IC50 [3] | Ki [3] | IC50 [4] | Ki [4] | IC50 (Cytochrome P450 2C19) | Ki (Cytochrome P450 2C19)

CCn1cc(C(=O)O)c(=O)c2cc(F)c(N3CCNCC3)nc21 [ENOXACIN]
Not Active: IC50 (B2 bradykinin receptor) | IC50 (Calcitonin receptor) | IC50 [1] | IC50 (Leukotriene C4 synthase) | IC50 [2] | IC50 [3] | Ki [3] | IC50 [4] | IC50 (Cytochrome P450 2C19) | Ki (Cytochrome P450 2C19)

O=C(O)c1cc(=O)c2c(OCC(O)COc3cccc4oc(C(=O)O)cc(=O)c34)cccc2o1 [CROMOLYN]
Not Active: IC50 (B2 bradykinin receptor) | IC50 (Calcitonin receptor) | IC50 [1] | IC50 (Leukotriene C4 synthase) | IC50 [2] | IC50 [3] | Ki [3] | IC50 [4] | IC50 (Cytochrome P450 2C19) | Ki (Cytochrome P450 2C19)

CC(=O)OCC(CCn1cnc2cnc(N)nc21)COC(C)=O [FAMCICLOVIR]
Not Active: IC50 (B2 bradykinin receptor) | IC50 (Calcitonin receptor) | IC50 [1] | IC50 (Leukotriene C4 synthase) | IC50 [2] | IC50 [3] | Ki [3] | IC50 [4] | IC50 (Cytochrome P450 2C19) | Ki (Cytochrome P450 2C19)

O=P1(N(CCCl)CCCl)NCCCO1 (stereo unspecified) [CYCLOPHOSPHAMIDE ANHYDROUS]
Not Active: IC50 (B2 bradykinin receptor) | IC50 (Calcitonin receptor) | IC50 [1] | IC50 (Leukotriene C4 synthase) | IC50 [2] | IC50 [3] | Ki [3] | IC50 [4] | IC50 (Cytochrome P450 2C19) | Ki (Cytochrome P450 2C19)

O=c1cc(-c2ccccc2)oc2ccc3ccccc3c12 [BETA-NAPHTHOFLAVONE]
Not Active: IC50 (B2 bradykinin receptor) | IC50 (Calcitonin receptor) | IC50 [1] | IC50 (Leukotriene C4 synthase) | IC50 [2] | IC50 [3] | Ki [3] | IC50 [4] | IC50 (Cytochrome P450 2C19) | Ki (Cytochrome P450 2C19)
